By IC50 is commonly meant the concentration that gives 50% inhibition. High values mean weaker potency, low ones greater potency.

Positions count from the first letter of the chain named.

Test [1] deals with T1, P2X7-2Nβ 73–79 deletion (Homo sapiens, UniProt Q99572, DEL73-79/I21V/M24R/N16P/N25R/Q22R/R20V/S23N/T19I/Y26L).
T1 construct: expressed in transfected cells; host or cells: Xenopus laevis oocytes (cRNA injection)
T1 sequence (Q99572 with tags, fused parts or gaps N16P/T19I/R20V/I21V/Q22R/S23N/M24R/N25R/Y26L/DEL73-79): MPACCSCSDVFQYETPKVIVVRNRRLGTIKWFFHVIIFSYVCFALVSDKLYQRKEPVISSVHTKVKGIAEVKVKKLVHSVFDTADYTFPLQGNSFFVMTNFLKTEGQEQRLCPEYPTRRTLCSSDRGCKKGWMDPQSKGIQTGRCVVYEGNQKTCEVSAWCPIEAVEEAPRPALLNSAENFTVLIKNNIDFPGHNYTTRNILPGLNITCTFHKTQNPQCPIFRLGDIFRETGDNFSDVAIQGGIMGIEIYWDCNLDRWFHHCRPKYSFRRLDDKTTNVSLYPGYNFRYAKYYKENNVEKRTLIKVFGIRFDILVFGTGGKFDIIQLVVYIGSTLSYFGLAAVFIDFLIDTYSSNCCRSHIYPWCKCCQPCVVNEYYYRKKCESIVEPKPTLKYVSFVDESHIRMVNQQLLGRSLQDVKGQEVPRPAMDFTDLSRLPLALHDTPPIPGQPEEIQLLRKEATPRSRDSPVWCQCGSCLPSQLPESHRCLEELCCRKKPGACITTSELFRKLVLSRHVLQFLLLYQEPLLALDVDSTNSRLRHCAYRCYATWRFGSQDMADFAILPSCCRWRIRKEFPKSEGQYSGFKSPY
The test is described as follows: Two-electrode voltage clamp of ATP-evoked currents in Xenopus oocytes. Format: cell-based. (In general: In two-electrode clamp one electrode senses voltage and the other passes current.)
Experimental: (§1) Additional point mutants were made using the QuikChange mutagenesis kit (Stratagene California, La Jolla, CA). The production of the correct mutations and absence of coding errors was determined by DNA sequencing (Automated ABI Sequencing Service, University of Leicester, UK). cRNA was generated for the mutants and 50 nl (50 ng) was injected into manually defoliculated stage V Xenopus laevis oocytes using an Inject+Matic microinjector (J.A. Gabay, Inject+Matic, Geneva, Switzerland). Injected oocytes were stored at 16°C in ND96 buffer [in millimolar concentrations, NaCl 96, KCl 2, CaCl2 1.8, MgCl2 1, sodium pyruvate 5, and HEPES 5 (pH 7.6) supplemented with 50 μg/ml gentamycin and 50 μg/ml tetracycline]. Three to seven days postinjection two-electrode voltage clamp recordings were made from oocytes bathed in divalent-free ND96 buffer (in millimolar concentrations, NaCl 96, KCl 2, sodium pyruvate 5, HEPES 5, and 0.1 flufenamic acid, pH 7.6). Oocytes were voltage clamped at a holding potential of −60 mV with a GeneClamp500B amplifier (Molecular Devices).
(§2) Inhibition by the antagonists was expressed as the percentage of the peak current amplitude of an EC90 concentration of ATP recorded before the application of antagonist (ATP gave reproducible responses to ATP in the absence of antagonist). Inhibition curves were fitted with the Hill equation (variable slope) using GraphPad Prism 6 (GraphPad Software, San Diego, CA). […] Individual concentration-response curves were generated for individual experiments, and statistical analysis was carried out on the data generated. […] Data are shown as mean ± S.E.M. In all cases n ≥ 3 for all data points.

For test [2], the target named is T2, P2X7R point mutant T94V (Homo sapiens, UniProt Q99572, I21V/M24R/N16P/N25R/Q22R/R20V/S23N/T19I/T94V/Y26L).
T2 construct: expressed in transfected cells; host or cells: Xenopus laevis oocytes (cRNA injection)
The description is as above. Conditions: EC90 ATP, mean ± S.E.M. In kind it is cell-based.
Experimental: as §1
(§3) Inhibition by the antagonists was expressed as the percentage of the peak current amplitude of an EC90 concentration of ATP recorded before the application of antagonist (ATP gave reproducible responses to ATP in the absence of antagonist). […]

The target in test [3] is T3, P2X7R point mutant K110Y (Homo sapiens, UniProt Q99572, I21V/K110Y/M24R/N16P/N25R/Q22R/R20V/S23N/T19I/Y26L).
T3 construct: expressed in transfected cells; host or cells: Xenopus laevis oocytes (cRNA injection)
T3 sequence (Q99572 1-595 N16P/T19I/R20V/I21V/Q22R/S23N/M24R/N25R/Y26L/K110Y): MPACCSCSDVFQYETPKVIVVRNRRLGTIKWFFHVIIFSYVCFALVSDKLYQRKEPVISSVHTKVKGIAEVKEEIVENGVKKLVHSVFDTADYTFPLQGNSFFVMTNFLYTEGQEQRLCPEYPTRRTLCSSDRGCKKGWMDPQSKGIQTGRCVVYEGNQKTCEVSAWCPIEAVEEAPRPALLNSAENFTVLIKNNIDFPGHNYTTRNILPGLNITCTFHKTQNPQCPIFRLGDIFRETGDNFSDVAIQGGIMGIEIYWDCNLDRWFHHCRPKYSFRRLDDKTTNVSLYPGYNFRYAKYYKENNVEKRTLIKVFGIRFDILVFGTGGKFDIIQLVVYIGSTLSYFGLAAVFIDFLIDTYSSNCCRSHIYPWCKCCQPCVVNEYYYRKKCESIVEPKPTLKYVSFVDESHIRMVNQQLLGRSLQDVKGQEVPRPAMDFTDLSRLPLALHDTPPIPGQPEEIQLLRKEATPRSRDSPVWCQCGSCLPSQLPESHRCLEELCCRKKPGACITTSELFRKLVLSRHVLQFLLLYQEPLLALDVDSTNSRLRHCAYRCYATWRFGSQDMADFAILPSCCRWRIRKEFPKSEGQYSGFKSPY
The description is as above. In kind it is cell-based.
Experimental: as §1, §2

Test [4] has as its target T4, P2X7R point mutant K306C (Homo sapiens, UniProt Q99572, I21V/K306C/M24R/N16P/N25R/Q22R/R20V/S23N/T19I/Y26L).
T4 construct: expressed in transfected cells; host or cells: Xenopus laevis oocytes (cRNA injection)
Described as above. In kind it is cell-based. The note with it: EC90 ATP, mean ± S.E.M.
Experimental: (§4) Injected oocytes were stored at 16°C in ND96 buffer [in millimolar concentrations, NaCl 96, KCl 2, CaCl2 1.8, MgCl2 1, sodium pyruvate 5, and HEPES 5 (pH 7.6) supplemented with 50 μg/ml gentamycin and 50 μg/ml tetracycline]. Three to seven days postinjection two-electrode voltage clamp recordings were made from oocytes bathed in divalent-free ND96 buffer (in millimolar concentrations, NaCl 96, KCl 2, sodium pyruvate 5, HEPES 5, and 0.1 flufenamic acid, pH 7.6). Oocytes were voltage clamped at a holding potential of −60 mV with a GeneClamp500B amplifier (Molecular Devices).
as §2

The target in test [5] is T5, P2X7R point mutant F88W (Homo sapiens, UniProt Q99572, F88W/I21V/M24R/N16P/N25R/Q22R/R20V/S23N/T19I/Y26L).
T5 construct: expressed in transfected cells; host or cells: Xenopus laevis oocytes (cRNA injection)
Described as above. The note with it: EC90 ATP, mean ± S.E.M. In kind it is cell-based.
Experimental: as §1, §3

Test [6] has as its target T6, P2X7R point mutant F88A (Homo sapiens, UniProt Q99572, F88A/I21V/M24R/N16P/N25R/Q22R/R20V/S23N/T19I/Y26L).
T6 construct: expressed in transfected cells; host or cells: Xenopus laevis oocytes (cRNA injection)
The description is as above. Conditions: EC90 ATP, mean ± S.E.M. Format: cell-based.
Experimental: as §1, §3

Test [7] deals with T7, P2X7R point mutant L83A (Homo sapiens, UniProt Q99572, I21V/L83A/M24R/N16P/N25R/Q22R/R20V/S23N/T19I/Y26L).
T7 construct: expressed in transfected cells; host or cells: Xenopus laevis oocytes (cRNA injection)
Described as above. Format: cell-based. The note with it: EC90 ATP, mean ± S.E.M.
Experimental: as §4, §2

Test [8] has as its target T8, P2X7R point mutant F95A (Homo sapiens, UniProt Q99572, F95A/I21V/M24R/N16P/N25R/Q22R/R20V/S23N/T19I/Y26L).
T8 construct: expressed in transfected cells; host or cells: Xenopus laevis oocytes (cRNA injection)
Briefly: cell-based.
Experimental: as §4, §2

Test [9] deals with T9, P2X7R point mutant Q116A (Homo sapiens, UniProt Q99572, I21V/M24R/N16P/N25R/Q116A/Q22R/R20V/S23N/T19I/Y26L).
T9 construct: expressed in transfected cells; host or cells: Xenopus laevis oocytes (cRNA injection)
The test is described as follows: Two-electrode voltage clamp of ATP-evoked currents in Xenopus oocytes. The note with it: EC90 ATP, mean ± S.E.M. Format: cell-based.
Experimental: as §4, §2

The target of test [10] is T10, P2X7R point mutant V312A (Homo sapiens, UniProt Q99572, I21V/M24R/N16P/N25R/Q22R/R20V/S23N/T19I/V312A/Y26L).
T10 construct: expressed in transfected cells; host or cells: Xenopus laevis oocytes (cRNA injection)
Briefly: cell-based.
Experimental: as §4, §2

Test [11] deals with T11, chimeric P2X7R with left flipper 280–284 of P2X4 (Homo sapiens, UniProt Q99572, D280T/I21V/K281R/M24R/N16P/N25R/N284E/Q22R/R20V/S23N/T19I/T282D/T283V/Y26L).
T11 sequence (Q99572 1-595 N16P/T19I/R20V/I21V/Q22R/S23N/M24R/N25R/Y26L/D280T/K281R/T282D/T283V/N284E): T3 sequence (Q99572 1-595 N16P/T19I/R20V/I21V/Q22R/S23N/M24R/N25R/Y26L/K110Y) with Y110K, D280T, K281R, T282D, T283V, N284E
The test is described as follows: cell-based.
Experimental: The production of the correct mutations and absence of coding errors was determined by DNA sequencing (Automated ABI Sequencing Service, University of Leicester, UK). cRNA was generated for the mutants and 50 nl (50 ng) was injected into manually defoliculated stage V Xenopus laevis oocytes using an Inject+Matic microinjector (J.A. Gabay, Inject+Matic, Geneva, Switzerland). Injected oocytes were stored at 16°C in ND96 buffer [in millimolar concentrations, NaCl 96, KCl 2, CaCl2 1.8, MgCl2 1, sodium pyruvate 5, and HEPES 5 (pH 7.6) supplemented with 50 μg/ml gentamycin and 50 μg/ml tetracycline]. Three to seven days postinjection two-electrode voltage clamp recordings were made from oocytes bathed in divalent-free ND96 buffer (in millimolar concentrations, NaCl 96, KCl 2, sodium pyruvate 5, HEPES 5, and 0.1 flufenamic acid, pH 7.6). Oocytes were voltage clamped at a holding potential of −60 mV with a GeneClamp500B amplifier (Molecular Devices).
as §2

T4 sequence (Q99572 whole entry N16P/T19I/R20V/I21V/Q22R/S23N/M24R/N25R/Y26L/K306C): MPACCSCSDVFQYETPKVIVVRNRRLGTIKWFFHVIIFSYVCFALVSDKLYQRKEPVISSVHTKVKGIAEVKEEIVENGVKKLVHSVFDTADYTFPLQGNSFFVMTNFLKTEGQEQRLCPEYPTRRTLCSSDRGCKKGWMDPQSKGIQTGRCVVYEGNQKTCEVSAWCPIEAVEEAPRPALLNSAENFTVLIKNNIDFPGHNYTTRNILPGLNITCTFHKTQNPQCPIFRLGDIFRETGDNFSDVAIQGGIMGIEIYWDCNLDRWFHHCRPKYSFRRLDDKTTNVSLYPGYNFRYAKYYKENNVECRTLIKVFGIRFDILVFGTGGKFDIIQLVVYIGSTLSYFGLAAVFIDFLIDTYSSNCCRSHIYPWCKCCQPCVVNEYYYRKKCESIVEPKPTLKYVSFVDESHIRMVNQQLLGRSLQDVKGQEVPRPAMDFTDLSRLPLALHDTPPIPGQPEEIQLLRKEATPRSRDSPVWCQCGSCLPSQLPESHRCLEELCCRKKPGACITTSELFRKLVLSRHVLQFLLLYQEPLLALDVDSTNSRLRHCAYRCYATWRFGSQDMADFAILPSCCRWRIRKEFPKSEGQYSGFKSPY
T10 sequence (Q99572 whole entry N16P/T19I/R20V/I21V/Q22R/S23N/M24R/N25R/Y26L/V312A): as the sequence (Q99572 whole entry N16P/T19I/R20V/I21V/Q22R/S23N/M24R/N25R/Y26L/K306C) above, with C306K, V312A counted along it
T7 sequence (Q99572 whole entry N16P/T19I/R20V/I21V/Q22R/S23N/M24R/N25R/Y26L/L83A): as the sequence (Q99572 whole entry N16P/T19I/R20V/I21V/Q22R/S23N/M24R/N25R/Y26L/K306C) above, with L83A, C306K counted along it
T6 sequence (Q99572 whole entry N16P/T19I/R20V/I21V/Q22R/S23N/M24R/N25R/Y26L/F88A): as the sequence (Q99572 whole entry N16P/T19I/R20V/I21V/Q22R/S23N/M24R/N25R/Y26L/K306C) above, with F88A, C306K counted along it
T2 sequence (Q99572 whole entry N16P/T19I/R20V/I21V/Q22R/S23N/M24R/N25R/Y26L/T94V): as the sequence (Q99572 whole entry N16P/T19I/R20V/I21V/Q22R/S23N/M24R/N25R/Y26L/K306C) above, with T94V, C306K counted along it
T9 sequence (Q99572 whole entry N16P/T19I/R20V/I21V/Q22R/S23N/M24R/N25R/Y26L/Q116A): as the sequence (Q99572 whole entry N16P/T19I/R20V/I21V/Q22R/S23N/M24R/N25R/Y26L/K306C) above, with Q116A, C306K counted along it
T5 sequence (Q99572 whole entry N16P/T19I/R20V/I21V/Q22R/S23N/M24R/N25R/Y26L/F88W): as the sequence (Q99572 whole entry N16P/T19I/R20V/I21V/Q22R/S23N/M24R/N25R/Y26L/K306C) above, with F88W, C306K counted along it
T8 sequence (Q99572 whole entry N16P/T19I/R20V/I21V/Q22R/S23N/M24R/N25R/Y26L/F95A): as the sequence (Q99572 whole entry N16P/T19I/R20V/I21V/Q22R/S23N/M24R/N25R/Y26L/K306C) above, with F95A, C306K counted along it

Take `Cl.Clc1cccc(-c2nnnn2Cc2cccnc2)c1Cl.O` [A438079, 3-(5-(2,3-dichlorophenyl)-1H-tetrazol-1-yl)methyl pyridine hydrochloride hydrate]: the IC50 in test [1] was 200 nM; in [2] it was more than 100000 nM; in test [3] it was 794 nM; in test [4] it was 1580 nM; in test [5], 3160 nM; in test [6], more than 100000 nM. The IC50 was 794 nM in [7]; more than 100000 nM in test [8]; 1260 nM in test [9]; 5010 nM in [10]; 31600 nM in test [11].
With `COc1ccc(CC(=O)NC(N=C(NC#N)Nc2cccc3ncccc23)C(C)(C)C)cc1OC` (stereo not drawn) [A740003, N-[1-[[(cyanoamino)(5-quinolinylamino)methylene]amino]-2,2-dimethylpropyl]-3,4-dimethoxybenzeneacetamide], the 50% inhibitory concentration (IC50) is 79.4 nM in test [1]; 398 nM in test [2]; 100 nM in test [3]; 316 nM in test [4]; 158 nM in test [5]; 5010 nM in test [6]. Also, the IC50 is 316 nM in test [7]; 1000 nM in [8]; 316 nM in [9]; 398 nM in test [10]; 794 nM in [11]. In addition, the “effect on antagonist sensitivity relative to P2X7-2Nβ” value in test [1] (73–79 deletion) is listed as “unaffected”; in test [3] (K110Y), “no effect”.

These data come from PMC5896373 (Molecular Pharmacology, 2018).
